Patent US20040102442A1, “Remedies for alzheimer's disease” (priority 2000, published 2004)
pIC50: −log10 of the molar value.

Molecular target: T1, Human type-X sPLA2 (Homo sapiens, UniProt O15496)
T1 construct: made in house; host or cells: CHO cells, stably transfected with a pSVL expression vector; culture supernatant used as the enzyme source
T1 sequence (O15496 43-165): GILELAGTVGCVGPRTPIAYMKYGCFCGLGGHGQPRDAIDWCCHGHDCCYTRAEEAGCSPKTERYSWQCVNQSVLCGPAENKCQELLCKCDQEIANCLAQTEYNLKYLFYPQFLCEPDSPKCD
Test: type-X sPLA2 inhibition test (chromogenic assay, diheptanoylthio PC)
Type: biochemical
Conditions: diheptanoylthio PC 1 mM, Triton X-100 0.3 mM, 30 min at 40° C., absorbance at 405 nm
Text: cDNA sequence encoding human type-X sPLA2 (Cupillard et al., J. Biol. Chem, 1997, 272, 15745-15752) was inserted into the downstream region of the promoter of pSVL SV40 Late Promoter Expression Vector (Amersham Pharmacia Biotech Inc.) that is an expression vector for mammalian cells. The obtained expression vector was transfected into the host CHO cells with a LipofectAMINE reagent (Gibco BRL Inc.) according to the manufacture's instruction to obtain the CHO cells stably expressing human type-X sPLA2. The transfected cell was cultured in A-MEM medium containing 10% fetal calf serum for 3 days and its culture supernatant was used for the measurement of each enzyme activity.
In order to identify and evaluate an inhibitor of type-X sPLA2, the following chromogenic assay is utilized. This assay has been applied for high volume screening using a 96-well microtiterplate. A general explanation for this assay is described in “Analysis of Human Synovial Fluid Phospholipase A2 on Short Chain Phosphatidylcholine-Mixed Micelles: Development of a Spectrophotometric Assay Suitable for a Micortiterplate Reader” (Analytical Biochemistry, 204, pp 190-197, 1992 by Laure. J. Reynolds. Lori L. Hughes and Edward A. Dennis.
Human type-X sPLA2 was incubated (30 min at 40° C. (15 μl/well)) with diheptanoylthio PC (1 mM) in the presence of Triton X-100 (0.3 mM) and 5,5′-dithiobis(2-nitrobenzoic acid) (125 μM) in Tris-HCl buffer (25 mM, pH 7.5) containing CaCl2 (10 mM), KCl (100 mM), and bovine serum albumin (1.0 mg/mL). The changes in the absorbance at 405 nm were measured and the inhibition activities were calculated.

SMILES	pIC50
CCc1c(C(=O)C(N)=O)c2c(OCC(=O)NS(=O)(=O)c3ccccc3)cccc2n1Cc1ccccc1 [Compound 18]	7.80
CCCc1c(C(=O)C(N)=O)c2c(OCC(=O)O)nc(C)cn2c1CC1CCCCC1 [Compound 5]	7.92
CCCc1c(C(=O)C(N)=O)c2c(OCC(=O)O)nc(C)cn2c1Cc1ccccc1 [Compound 4]	7.57
CCc1c(C(=O)C(N)=O)c2c(OCC(=O)O)nc(C)cn2c1Cc1cccc(-c2ccccc2)c1 [Compound 1]	8.00

The remaining lines, values ahead:

pIC50	SMILES
8.15	CCc1c(C(=O)C(N)=O)c2c(OCC(=O)O)nc(C3CCCCC3)cn2c1Cc1ccccc1 [Compound 16]
8.00	CCc1c(C(=O)C(N)=O)c2c(OCC(=O)O)nc(C)cn2c1Cc1ccccc1Cc1ccccc1 [Compound 2]
8.30	CCc1c(C(=O)C(N)=O)c2c(OCC(=O)O)nc(-c3ccccc3)cn2c1Cc1ccccc1 [Compound 3]
